According to patent US5741917A, “Process for the preparation of acyloxyalkanesulfonates having improved properties” (Hoechst Aktiengesellschaft, priority 1995, dated 1998):

Conditions: deionized water

Water solubility (maximum concentration giving a clear solution): 10%
Substance: sodium C13 to C15 -acylisethionate [Example 4]
